Biological target: T1, Δ^5 -lipoxygenase from rat basophilic leukemia (RBL-1) cells (Rattus norvegicus, UniProt P12527)
T1 construct: endogenous in cells; host or cells: RBL-1 rat basophilic leukemia cells (ATCC CRL 1378); 113,000×g supernatant (cytosolic fraction)
T1 sequence (P12527 1-673): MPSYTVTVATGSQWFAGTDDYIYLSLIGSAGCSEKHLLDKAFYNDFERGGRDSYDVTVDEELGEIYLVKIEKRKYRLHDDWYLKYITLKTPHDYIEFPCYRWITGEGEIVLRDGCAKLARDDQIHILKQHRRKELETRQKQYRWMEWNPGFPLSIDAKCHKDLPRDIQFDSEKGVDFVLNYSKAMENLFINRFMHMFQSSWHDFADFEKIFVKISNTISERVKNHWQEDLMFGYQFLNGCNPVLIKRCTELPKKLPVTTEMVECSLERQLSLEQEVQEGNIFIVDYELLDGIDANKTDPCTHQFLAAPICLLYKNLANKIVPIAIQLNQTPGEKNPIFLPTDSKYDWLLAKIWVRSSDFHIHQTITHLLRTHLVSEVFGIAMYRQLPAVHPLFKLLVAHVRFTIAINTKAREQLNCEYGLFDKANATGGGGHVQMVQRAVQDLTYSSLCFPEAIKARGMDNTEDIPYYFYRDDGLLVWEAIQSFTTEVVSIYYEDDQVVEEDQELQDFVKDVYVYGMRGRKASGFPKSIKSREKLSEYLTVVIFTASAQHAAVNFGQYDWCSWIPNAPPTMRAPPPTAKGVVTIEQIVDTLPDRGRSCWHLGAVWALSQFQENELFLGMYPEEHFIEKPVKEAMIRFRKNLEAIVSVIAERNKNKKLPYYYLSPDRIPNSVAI
Experiment: In vitro test for Δ^5 -lipoxygenase inhibitors (5-LO), RBL-1 cell enzyme, 5-HETE radioimmunoassay
Format: biochemical
Conditions: RBL-1 5-LO; 10 min preincubation; 8.25 μM arachidonic acid, 10 min at 37° C.; 5-HETE formation; read-out: 5-LO IC-50
In short: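 Cytosolic (113,000×g supernatant) 5-LO from RBL-1 cells was preincubated with compound 10 min at 30° C, then reacted 10 min at 37° C with 8.25 μM arachidonic acid in Tris-HCl pH 7.2 with glutathione, indomethacin, CaCl2 and ATP. The reaction was stopped with citric acid (pH 3.5), and 5-HETE formed was quantified by radioimmunoassay.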

| SMILES | IC50 [nM] |
| --- | --- |
| Cc1c(C)c2c(c(C)c1O)CCC(C)(C#Cc1ccccc1O)O2 (racemic) [Example 50 (2-HO-phenyl), rac-3,4-Dihydro-2-[(2-hydroxyphenyl)ethynyl]-2,5,7,8-tetramethyl-2H-1-benzopyran-6-ol] | 6 |
| Cc1c(C)c2c(c(C)c1O)CCC(C)(c1cc3ccccc3o1)O2 (racemic) [Example 50 (CH; H, H, H), rac-2-(2-Benzofuranyl)-3,4-dihydro-2,5,7,8-tetramethyl-2H-1-benzopyran-6-ol] | 12 |
| Cc1ccc2oc(C3(C)CCc4c(C)c(O)c(C)c(C)c4O3)cc2n1 (racemic) [Example 51, rac-3,4-Dihydro-2-(5-methylfuro[3,2[b]pyridin-2-yl)-2,5,7,8-tetramethyl-2H-1-benzopyran-6ol] | 3 |
| Cc1c(C)c2c(c(C)c1O)CCC(C)(c1cc3ncccc3o1)O2 (racemic) [Example 52, rac-3,4-Dihydro-2-(furo[3,2-b]pyridine-2-yl)-2,5,7,8-tetramethyl-2H-1-benzopyran-6-ol] | 18 |
| CCCc1c(O)c(C(C)=O)cc2cc(C3(C)CCc4c(C)c(O)c(C)c(C)c4O3)oc12 (racemic) [Example 53, rac-1-2-(3,4-Dihydro-6-hydroxy-2,5,7,8-tetramethyl-2H-1-benzopyran-2-yl)-6-hydroxy-7-propylbenzofuran-5-yl]ethanone] | 17 |
| COc1cc(CO)cc2cc(C3(C)CCc4c(C)c(O)c(C)c(C)c4O3)oc12 (racemic) [Example 55, rac-2-(3,4-Dihydro-6-hydroxy-2,5,7,8-tetramethyl-2H-1-benzopyran-2-yl)-7-methoxybenzofuran-5-methanol] | 3 |
| Cc1c(C)c2c(c(C)c1O)CCC(C)(CCc1cccs1)O2 (racemic) [Example 57, rac-3,4-Dihydro-2,5,7,8-tetramethyl-2-[2-(2-thienyl)ethyl]-2H-1-benzo-pyran-6-ol] | 50 |
| Cc1c(C)c2c(c(C)c1O)CCC(C)(CCc1ccccn1)O2 (racemic) [Example 58, rac-3,4-Dihydro-2,5,7,8-tetramethyl-2-[2-(2-pyridinyl)ethyl]-2H-1-benzopyran-6-ol] | 60 |
| Cc1c(C)c2c(c(C)c1O)CCC(C)(CCc1cccnc1)O2 (racemic) [Example 59, rac-3,4-Dihydro-2,5,7,8-tetramethyl-2-[2-(3-pyridinyl)ethyl]-2H-1-benzopyran-6-ol] | 30 |
| COc1ccc(CCC2(C)CCc3c(C)c(O)c(C)c(C)c3O2)cc1OC(C)=O (racemic) [Example 60, rac-2-{2-[3-(Acetyloxy)-4-methoxyphenyl]ethyl}-3,4-dihydro-2,5,7,8-tetramethyl-2H-1-benzopyran-6ol] | 56 |
| Cc1c(C)c2c(c(C)c1O)CCC(C)(CCc1ccc(O)c(O)c1)O2 (racemic) [Example 61, rac-4-[2-(3,4-Dihydro-6-hydroxy-2,5,7,8-tetramethyl-2H-1-benzopyran-2-yl)ethyl]-1,2-benzenediol] | 15 |
| COc1cccc(CCC2(C)CCc3c(C)c(O)c(C)c(C)c3O2)c1 (racemic) [Example 62, rac-3,4-Dihydro-2-[2-(3-methoxyphenyl)ethyl]-2,5,7,8-tetramethyl-2H-1-benzopyran-6-ol] | 120 |
| COC(=O)c1cc(CCC2(C)CCc3c(C)c(O)c(C)c(C)c3O2)ccc1O (racemic) [Example 63, rac-5-[2-(3,4-Dihydro-6-hydroxy-2,5,7,8-tetramethyl-2H-1-benzopyran-2-yl)ethyl]-2-hydroxybenzoic acid methyl ester] | 80 |
| Cc1c(C)c2c(c(C)c1O)CCC(C)(CCc1ccc(-c3cccnc3)cc1)O2 (racemic) [Example 64, rac-3,4-Dihydro-2,5,7,8-tetramethyl-2-{2-[4-(3-pyridinyl)-phenyl]ethyl}-2H-1-benzopyran-6-ol] | 46 |
| Cc1c(C)c2c(c(C)c1O)CCC(C)(CCc1ccc(-c3ccccn3)s1)O2 (racemic) [Example 65, rac-3,4-Dihydro-2,5,7,8-tetramethyl-2-{2-[5-(2-pyridinyl)-2-thienyl]ethyl}-2H-1-benzopyran-6ol] | 170 |
| CCCCc1ccc(CCC2(C)CCc3c(C)c(O)c(C)c(C)c3O2)s1 (racemic) [Example 66, rac-2-[2-(5-Butyl-2-thienyl)ethyl]-3,4-dihydro-2,5,7,8-tetramethyl-2H-1-benzopyran-6-ol] | 140 |
| Cc1c(C)c2c(c(C)c1O)CC[C@](C)(C#Cc1cccs1)O2 [Example 5, (R)-3,4-Dihydro-2,5,7,8-tetramethyl-2-[(2-thienyl)ethynyl]-2H-1-benzopvran-6-ol] | 15 |
| Cc1c(C)c2c(c(C)c1O)CC[C@@](C)(C#Cc1cccs1)O2 [Example 13, (S)-3,4-Dihydro-2,5,7,8-tetramethyl-2-[(2-thienyl)ethynyl]-2H-1-benzopyran-6-ol] | 17 |
| Cc1c(C)c2c(c(C)c1O)CCC(C)(C#Cc1ccc3c(c1)N(C)C(=O)CO3)O2 (stereo not shown) [Example 48] | 32 |
